Test results as given in patent publication US9738634B2, “Heterocyclic amide compound and herbicide” (SYNGENTA PARTICIPATIONS AG, priority 2013, dated 2017).

Tests used:
Assay type in all cases: in vivo
catchweed [1] = assay: Test Example 4: weedkilling efficacy by foliar treatment; O: catchweed; conditions: treatment dosage 315 g/ha
Outline: (§1)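 Seeds are spot-sown into sterilized diluvial soil and covered with about 1.5 cm of soil. After 14 days' greenhouse growth at 25 to 30° C, plants are sprayed on stems and leaves with diluted emulsion at the stated g/ha rate, then scored at 3 weeks.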

crabgrass [2] = assay: Test Example 4: weedkilling efficacy by foliar treatment; D: crabgrass; conditions: treatment dosage 315 g/ha
Outline: as §1

transplanted rice = assay: Test Example 1: preemergent weed treatment in the submerged state, effect on crop; a: transplanted rice; conditions: treatment dosage 252 g/ha
Outline: (§2)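 Submerged pre-emergence treatment, water-surface application of compound emulsion at g/ha dosages; 4 cm flooded alluvial soil, weeds sown and 2.5-leaf rice transplanted same day. Rated after 3 weeks, greenhouse.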

chickweed [3] = assay: Test Example 3: weedkilling efficacy through soil treatment; N: chickweed; conditions: treatment dosage 315 g/ha
Outline: (§3)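 Crop and weed responses were judged three weeks after a uniform surface spray of the water-diluted emulsion at the given g/ha rate. Seeds sat beneath about 1.5 cm of sterilized diluvial soil, and boxes stood in a greenhouse at 25 to 30° C.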

oval-leafed pondweed [4] = assay: Test Example 1: weedkilling efficacy, preemergent weed treatment in the submerged state; C: oval-leafed pondweed; conditions: treatment dosage 252 g/ha
Outline: as §2

chickweed [5] = assay: Test Example 4: weedkilling efficacy by foliar treatment; N: chickweed; conditions: treatment dosage 315 g/ha
Outline: as §1

Italian ryegrass [6] = assay: Test Example 4: weedkilling efficacy by foliar treatment; I: Italian ryegrass; conditions: treatment dosage 315 g/ha
Outline: as §1

directly sown rice [7] = assay: Test Example 4: foliar treatment, effect on crop; b: directly sown rice; conditions: treatment dosage 315 g/ha
Outline: as §1

wheat [8] = assay: Test Example 4: foliar treatment, effect on crop; e: wheat; conditions: treatment dosage 315 g/ha
Outline: as §1

wheat [9] = assay: Test Example 3: soil treatment, effect on crop; e: wheat; conditions: treatment dosage 315 g/ha
Outline: as §3

oval-leafed pondweed [10] = assay: Test Example 2: weedkilling efficacy, growth period weed treatment in the submerged state; C: oval-leafed pondweed; conditions: treatment dosage 252 g/ha
Outline: (§4)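 Seedlings at 1-2 leaves in 4 cm-deep submerged alluvial soil received emulsion formulations on the water surface, dosed per hectare; effects were judged 3 weeks on.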

redroot pigweed [11] = assay: Test Example 4: weedkilling efficacy by foliar treatment; L: redroot pigweed; conditions: treatment dosage 315 g/ha
Outline: as §1

fig-leafed goosefoot [12] = assay: Test Example 4: weedkilling efficacy by foliar treatment; M: fig-leafed goosefoot; conditions: treatment dosage 315 g/ha
Outline: as §1

wild oat [13] = assay: Test Example 4: weedkilling efficacy by foliar treatment; G: wild oat; conditions: treatment dosage 315 g/ha
Procedure: Testing of Weedkilling Efficacy by Foliar Treatment
Sterilized diluvial soil was introduced into 21 cm long, 13 cm wide, 7 cm deep plastic boxes, and seeds of crabgrass, green foxtail, barnyard grass, wild oat, black-grass, Italian ryegrass, common wind-grass, Indian mallow, redroot pigweed, fig-leafed goosefoot, chickweed, catchweed, birds-eye speedwell, corn, soybean, rice, wheat, beet and rapeseed were each spot-sown, and covered with about 1.5 cm of soil, then the plants were grown in a greenhouse at 25 to 30° C.
After they had grown for 14 days, emulsions of compounds of the present invention prepared according to compounding example 2 were diluted with water to give the specified dosages, and applied uniformly onto the stem and leaf parts with a small sprayer. 3 weeks after the pesticide treatment the effect on each type of plant was investigated on the basis of the assessment criteria of test example 1.
A: barnyard grass, B: bulrush, C: oval-leafed pondweed, D: crabgrass, E: green foxtail, F: barnyard grass, G: wild oat, H: black-grass, I: Italian ryegrass, J: common wind-grass, K: Indian mallow, L: redroot pigweed, M: fig-leafed goosefoot, N: chickweed, O: catchweed, p: birds-eye speedwell, a: transplanted rice, b: directly sown rice, c: corn, d: soybean, e: wheat, f: beet, g: rapeseed
Further, pesticide dosage (g/ha) indicates the concentration regulated such that treatment was with only the stated number of grams (g), when calculated per hectare (ha).

barnyard grass [14] = assay: Test Example 1: weedkilling efficacy, preemergent weed treatment in the submerged state; A: barnyard grass; conditions: treatment dosage 252 g/ha
Outline: as §2

black-grass [15] = assay: Test Example 3: weedkilling efficacy through soil treatment; H: black-grass; conditions: treatment dosage 315 g/ha
Outline: as §3

Indian mallow [16] = assay: Test Example 3: weedkilling efficacy through soil treatment; K: Indian mallow; conditions: treatment dosage 315 g/ha
Outline: as §3

catchweed [17] = assay: Test Example 3: weedkilling efficacy through soil treatment; O: catchweed; conditions: treatment dosage 315 g/ha
Outline: as §3

corn [18] = assay: Test Example 3: soil treatment, effect on crop; c: corn; conditions: treatment dosage 315 g/ha
Outline: as §3

soybean [19] = assay: Test Example 4: foliar treatment, effect on crop; d: soybean; conditions: treatment dosage 315 g/ha
Outline: as §1

barnyard grass [20] = assay: Test Example 2: weedkilling efficacy, growth period weed treatment in the submerged state; A: barnyard grass; conditions: treatment dosage 252 g/ha
Outline: as §4

bulrush [21] = assay: Test Example 1: weedkilling efficacy, preemergent weed treatment in the submerged state; B: bulrush; conditions: treatment dosage 252 g/ha
Outline: as §2

birds-eye speedwell = assay: Test Example 3: weedkilling efficacy through soil treatment; p: birds-eye speedwell; conditions: treatment dosage 315 g/ha
Outline: as §3

directly sown rice [22] = assay: Test Example 3: soil treatment, effect on crop; b: directly sown rice; conditions: treatment dosage 315 g/ha
Outline: as §3

soybean [23] = assay: Test Example 3: soil treatment, effect on crop; d: soybean; conditions: treatment dosage 315 g/ha
Outline: as §3

green foxtail [24] = assay: Test Example 4: weedkilling efficacy by foliar treatment; E: green foxtail; conditions: treatment dosage 315 g/ha
Outline: as §1

fig-leafed goosefoot [25] = assay: Test Example 3: weedkilling efficacy through soil treatment; M: fig-leafed goosefoot; conditions: treatment dosage 315 g/ha
Outline: as §3

bulrush [26] = assay: Test Example 2: weedkilling efficacy, growth period weed treatment in the submerged state; B: bulrush; conditions: treatment dosage 252 g/ha
Outline: as §4

corn [27] = assay: Test Example 4: foliar treatment, effect on crop; c: corn; conditions: treatment dosage 315 g/ha
Outline: as §1

Italian ryegrass [28] = assay: Test Example 3: weedkilling efficacy through soil treatment; I: Italian ryegrass; conditions: treatment dosage 315 g/ha
Outline: as §3

Indian mallow [29] = assay: Test Example 4: weedkilling efficacy by foliar treatment; K: Indian mallow; conditions: treatment dosage 315 g/ha
Outline: as §1

black-grass [30] = assay: Test Example 4: weedkilling efficacy by foliar treatment; H: black-grass; conditions: treatment dosage 315 g/ha
Outline: as §1

wild oat [31] = assay: Test Example 3: weedkilling efficacy through soil treatment; G: wild oat; conditions: treatment dosage 315 g/ha
Outline: as §3

beet = assay: Test Example 4: foliar treatment, effect on crop; f: beet; conditions: treatment dosage 315 g/ha
Outline: as §1

green foxtail [32] = assay: Test Example 3: weedkilling efficacy through soil treatment; E: green foxtail; conditions: treatment dosage 315 g/ha
Outline: as §3

redroot pigweed [33] = assay: Test Example 3: weedkilling efficacy through soil treatment; L: redroot pigweed; conditions: treatment dosage 315 g/ha
Outline: as §3

crabgrass [34] = assay: Test Example 3: weedkilling efficacy through soil treatment; D: crabgrass; conditions: treatment dosage 315 g/ha
Outline: as §3

CC1=C(c2ccccc2)C(=O)N(C(C)(C)C(=O)Nc2cccc(C(F)(F)F)n2)CO1 [B-2-58]
O (catchweed) weedkilling efficacy grade (catchweed [1]): 1 (weed kill ratio 5% or more, less than 20%)
D (crabgrass) weedkilling efficacy grade (crabgrass [2]): 5 (weed kill ratio 90% or more, (practically complete withering))
a (transplanted rice) effect on crop grade (transplanted rice): 0 (weed kill ratio 5% or less (practically no effect))
N (chickweed) weedkilling efficacy grade (chickweed [3]): 4 (weed kill ratio 70% or more, less than 90%)
C (oval-leafed pondweed) weedkilling efficacy grade (oval-leafed pondweed [4]): 5 (weed kill ratio 90% or more, (practically complete withering))
N (chickweed) weedkilling efficacy grade (chickweed [5]): 3 (weed kill ratio 40% or more, less than 70%)
I (Italian ryegrass) weedkilling efficacy grade (Italian ryegrass [6]): 5 (weed kill ratio 90% or more, (practically complete withering))
b (directly sown rice) effect on crop grade (directly sown rice [7]): 4 (weed kill ratio 70% or more, less than 90%)
e (wheat) effect on crop grade (wheat [8]): 1 (weed kill ratio 5% or more, less than 20%)
e (wheat) effect on crop grade (wheat [9]): 0 (weed kill ratio 5% or less (practically no effect))
C (oval-leafed pondweed) weedkilling efficacy grade (oval-leafed pondweed [10]): 4 (weed kill ratio 70% or more, less than 90%)
L (redroot pigweed) weedkilling efficacy grade (redroot pigweed [11]): 3 (weed kill ratio 40% or more, less than 70%)
M (fig-leafed goosefoot) weedkilling efficacy grade (fig-leafed goosefoot [12]): 3 (weed kill ratio 40% or more, less than 70%)
G (wild oat) weedkilling efficacy grade (wild oat [13]): 3 (weed kill ratio 40% or more, less than 70%)
A (barnyard grass) weedkilling efficacy grade (barnyard grass [14]): 5 (weed kill ratio 90% or more, (practically complete withering))
H (black-grass) weedkilling efficacy grade (black-grass [15]): 4 (weed kill ratio 70% or more, less than 90%)
K (Indian mallow) weedkilling efficacy grade (Indian mallow [16]): 1 (weed kill ratio 5% or more, less than 20%)
O (catchweed) weedkilling efficacy grade (catchweed [17]): 0 (weed kill ratio 5% or less (practically no effect))
c (corn) effect on crop grade (corn [18]): 1 (weed kill ratio 5% or more, less than 20%)
d (soybean) effect on crop grade (soybean [19]): 3 (weed kill ratio 40% or more, less than 70%)
A (barnyard grass) weedkilling efficacy grade (barnyard grass [20]): 3 (weed kill ratio 40% or more, less than 70%)
B (bulrush) weedkilling efficacy grade (bulrush [21]): 5 (weed kill ratio 90% or more, (practically complete withering))
P (birds-eye speedwell) weedkilling efficacy grade (birds-eye speedwell): 5 (weed kill ratio 90% or more, (practically complete withering))
b (directly sown rice) effect on crop grade (directly sown rice [22]): 3 (weed kill ratio 40% or more, less than 70%)
d (soybean) effect on crop grade (soybean [23]): 0 (weed kill ratio 5% or less (practically no effect))
E (green foxtail) weedkilling efficacy grade (green foxtail [24]): 5 (weed kill ratio 90% or more, (practically complete withering))
M (fig-leafed goosefoot) weedkilling efficacy grade (fig-leafed goosefoot [25]): 4 (weed kill ratio 70% or more, less than 90%)
B (bulrush) weedkilling efficacy grade (bulrush [26]): 5 (weed kill ratio 90% or more, (practically complete withering))
c (corn) effect on crop grade (corn [27]): 3 (weed kill ratio 40% or more, less than 70%)
I (Italian ryegrass) weedkilling efficacy grade (Italian ryegrass [28]): 5 (weed kill ratio 90% or more, (practically complete withering))
K (Indian mallow) weedkilling efficacy grade (Indian mallow [29]): 3 (weed kill ratio 40% or more, less than 70%)
H (black-grass) weedkilling efficacy grade (black-grass [30]): 5 (weed kill ratio 90% or more, (practically complete withering))
G (wild oat) weedkilling efficacy grade (wild oat [31]): 3 (weed kill ratio 40% or more, less than 70%)
f (beet) effect on crop grade (beet): 4 (weed kill ratio 70% or more, less than 90%)
E (green foxtail) weedkilling efficacy grade (green foxtail [32]): 5 (weed kill ratio 90% or more, (practically complete withering))
L (redroot pigweed) weedkilling efficacy grade (redroot pigweed [33]): 3 (weed kill ratio 40% or more, less than 70%)
D (crabgrass) weedkilling efficacy grade (crabgrass [34]): 5 (weed kill ratio 90% or more, (practically complete withering))
